Measured values from US20180028681A1, “COMBINATION THERAPY USING A CD19-ADC AND VINCRISTINE” (SEATTLE GENETICS, INC., priority 2015, published 2018).

Test system: ALL patient donor 90811 xenograft
Test: Disease burden (blast cells) in bone marrow, patient-derived ALL xenograft donor 90811
Assay type: in vivo, mouse
Conditions: for Disease Burden in Bone Marrow, CD45/10% Mean: NOD-scid IL2Rγ null mice, dosed at 18% blasts in sentinels, bone marrow counts day 10 post-dose
Excerpt: Establishment of patient-derived xenografts: NOD-scid IL2Rγ null mice were used as hosts for patient-derived xenografts. Twenty-four hours prior to cell implant, mice received 1.0 Gy irradiation using a Radsource 2000 irradiator (Radsource technologies, Suwanee, Ga.). Frozen bone marrow isolates of mononuclear cells from patients with acute lymphoblastic leukemia were obtained from […] (Alameda, Calif.). Cells were thawed in a warm water bath. After thaw, RPMI-1640 media was slowly added to the bone marrow isolate suspension. The cells were washed with PBS and centrifuged to remove DMSO in freezing media. After centrifugation, the cells were suspended in PBS. For, implantation, 3.6×10^6 cells were injected into the tail vein of female NOD-scid IL2Rγ null mice designated as donor, or passage 0 mice. Approximately 7 weeks after implant, mice were euthanized. Bone marrow and spleen were collected using sterile technique. Spleens were mechanically disrupted using a sterile syringe end and mesh filter. Connective tissues from spleens were filtered out using 40um filters. Splenocytes and bone marrow cells were treated with red blood cell buffer lysis (BD lysis buffer, BD biosciences, San Jose, Calif.) for 15 minutes at room temperature. A sample of the cells was utilized for confirmation of engraftment. The percentage of blast cells was determined by the number of CD45 FITC, CD19 PE-Cy.5 (BD Biosciences, San Jose, Calif.) CD10 APC (Biolegend, San Diego, Calif.) triple positive cells via flow cytometry (FACScalibur, BD Biosciences, San Jose, Calif.). The majority of the cells (passage 1) were placed into freezing media (90% Heat inactivated fetal bovine serum and 10% DMSO). Subsequent xenograft experiments utilized passage 1 cells. Cells were implanted in the same manner done for donor mice (passage 0 mice). Starting 14-21 days post implant, 2-3 sentinel mice were euthanized to determine the percentage blast cells in the bone marrow. […] SGN-CD19A and non-specific ADC (also called h00-1269) were administered as a single intraperitoneal injection at 1.0, 3.0, or 10.0 mg/kg dose. Cyclophosphamide at 15 or 30 mg/kg (Baxter, Deefield, Ill.), Vincristine at 0.188 or 0.375 mg/kg (Hospira, Lake Forest, Ill.), and Doxorubicin at 1.24 or 2.475 mg/kg (Pfizer, NY, NY) were combined and administered as a single dose via intravenous injection into the lateral tail vein. Dexamethasone at 7.5 or 15 mg/kg (APP Pharmaceuticals, Schaumberg, Ill.) was given daily via intraperitoneal injection for five days. At pre-determined times post treatment, mice were euthanized for collection of bone marrow and determination of blast cell percentage via flow cytometry.
The response of human patient-derived ALL cells to single agent SGN-CD19A or CVAD was determined in mouse xenograft models. Bone marrow isolates from patients with ALL (donor 06343 and donor 90811) were used to establish xenografts in NOD-scid IL2Rgamma^null mice. After engraftment, patient-derived bone marrow cells were frozen and are referred to as passage 1 cells. Passage 1 cells were implanted into mice and assessed for presence of blast cells (CD45/CD10/CD19 positive cells). […] Mice were given either 1, 3, or 10 mg/kg of SGN-CD19A or 10 mg/kg of a non-specific ADC conjugated to MMAF (also called h00-1269). A maximum tolerated dose (MTD) of CVAD had previously been determined in the same mouse strain. Mice were given either CVAD at the MTD or at 50% of the MTD.
The response of human patient-derived ALL cells to the combination of SGN-CD19A and CVAD was also determined in the mouse xenograft model. Patient samples were engrafted as described above.

Row | Molecule | Disease Burden in Bone Marrow, CD45/10% Mean [%] | single agent dose response, blast cells in the bone marrow (SGN-CD19A 1, 3 or 10 mg/kg, CVAD at MTD or 50% of MTD, FIGS. 2B, 2D)
1 | C[C@@H]1C[C@H]2[C@@H]3CCC4=CC(=O)C=C[C@]4(C)[C@@]3(F)[C@@H](O)C[C@]2(C)[C@@]1(O)C(=O)CO [Dexamethasone] | 91.8 | 
2 | CC[C@]1(O)C[C@H]2CN(CCc3c([nH]c4ccccc34)[C@@](C(=O)OC)(c3cc4c(cc3OC)N(C=O)[C@H]3[C@@](O)(C(=O)OC)[C@H](OC(C)=O)[C@]5(CC)C=CCN6CC[C@]43[C@@H]65)C2)C1 [Vincristine] | 32.2 | 
3 | COc1cccc2c1C(=O)c1c(O)c3c(c(O)c1C2=O)C[C@@](O)(C(=O)CO)C[C@@H]3O[C@H]1C[C@H](N)[C@H](O)[C@H](C)O1 [Doxorubicin] | 86.7 | 
4 | O=P1(N(CCCl)CCCl)NCCCO1 (stereo not drawn) [Cyclophosphamide] | 94.4 | 
5 | SGN-CD19A: CD19-directed antibody-drug conjugate: humanized antibody hBU12, maleimidocaproyl linker, monomethyl auristatin F (MMAF); average four drugs per antibody (conjugate) VL: EIVLTQSPATLSLSPGERATLSCSASSSVSYMHWYQQKPGQAPRLLIYDTSKLASGIPARFSGSGSGTDFTLTISSLEPEDVAVYYCFQGSVYPFTFGQGTKLEIKR VH: QVQLQESGPGLVKPSQTLSLTCTVSGGSISTSGMGVGWIRQHPGKGLEWIGHIWWDDDKRYNPALKSRVTISVDTSKNQFSLKLSSVTAADTAVYYCARMELWSYYFDYWGQGTLVTVSS | 18.2 | decreasing amounts of blast cells in the bone marrow
